Assays:
iPSCs (TC1133) [1] = test: Cardiac differentiation of iPSCs in suspension (ambr15, 2-factor protocol CHIR/IWP4); assay type: cell-based, human
Protocol: The cardiac differentiation potential of iPSCs after long-term culture was assessed by direct differentiation into iPSC-CMs using a published 2-factor protocol (Chen et al., 2015). iPSC aggregates were differentiated in the ambr15 system and the medium was exchanged manually. Briefly, the basal medium on day 0-5 consisted of RPMI 1640+2% B-27 supplement without insulin. From day 6 onwards the basal medium was RPMI 1640+2% b-27 supplement. To initiate mesodermal differentiation, CHIR was added in varying concentrations on day 1. 5 μM IWP4 was added on day 2 and 3 or day 3 and 4 to initiate cardiac differentiation. A main goal of this project was to ensure that the cardiac differentiation potential remains in iPSCs that are cultivated with the developed expansion strategy. The cardiac differentiation potential was assessed by using a published protocol for the directed cardiac differentiation of PSCs in suspension culture (Chen et al., 2015). iPSCs in suspension were successfully differentiated into iPSC-CMs during early passages (Cultivation Optimization Run 12) and during late passages (Cultivation Optimization Run 13) of long-term cultures. Thereby, proof of concept was shown that iPSCs generated with the developed expansion strategy can be used to produce iPSC-CMs in suspension culture.

iPSCs (TC1133) [2] = test: Y27632 pretreatment before automatic passaging of iPSC aggregates in ambr15 suspension culture (Cultivation Optimization Run 08); assay type: cell-based, human
Excerpt: The nucleocounter NC-200 offers fast and reliable assessment of cell number and viability. Furthermore, it is GMP-compliant and is used during the production stage. Single cell suspensions may be directly measured with the NC-200, whereas suspensions with high content of cell clumps should be treated according to special protocols, supplied with the NC-200. These protocols include cell lysis to ensure distinguishability of single nuclei. However, large iPSC aggregates of about 70-250 μm, which were obtained in the suspension culture, could not be sufficiently lysed with the provided protocols within a reasonable time. Therefore, iPSC aggregates were digested using TrypLE before measurement with the NC-200. […] This suspension was then used for measurement with the NC-200 using the “Viability and Cell Count—A100 and B Assay” intended for small cell aggregates.
The pluripotency state of iPSCs was assessed by analyzing the pluripotency-related markers NANOG, TRA-1-60, and OCT4 using flow cytometry. iPSC aggregates were digested with TrypLE to achieve a near singe cell suspension. Subsequently the cells were fixed by adding Histofix to the cell suspension in a 1:1 ratio (resulting in 2% PFA). For analysis, the cells were stained with fluorochrome-conjugated antibodies. Dead cells were excluded from the analysis with Hoechst staining. Accordingly, the expression of a-Actinin and cTNT was analyzed to assess the success of cardiac differentiation.
The aggregate size was analyzed using a Cellavista device. Culture samples were transferred into a 24-well plate prepared with PBS (—Ca2+/—Mg2+) and measured with the Cellavista. Images were processed by the Cellavista software by applying a threshold to discriminate aggregates from background. The software FIJI (Schindelin et al., 2012) was subsequently used to analyze aggregate size.
To increase the degree of reaggregation, pretreatment with ROCK inhibitor Y27632 was tested. Pretreatment of iPSCs with Y27632 has been reported for other procedures that require cell singularization and are stressful for iPSCs (Chatterjee et al., 2011). […]

Row | Compound | optimal concentration for successful cardiac differentiation (iPSCs (TC1133) [1]; iPSCs of earlier passages (passage 0)) | optimal concentration for successful cardiac differentiation (iPSCs (TC1133) [1]; iPSCs of later passages (passage 8)) | expression of NANOG (iPSCs (TC1133) [2]; day 3, passage 1, flow cytometry, Y27632 pretreatment) | expansion rate (iPSCs (TC1133) [2]; day 5, passage 1, 10 μM Y27632 pretreatment, Versene passaging) | aggregate size (mean) (iPSCs (TC1133) [2]; passage 1, Y27632 pretreatment)
1 | Cc1c[nH]c(-c2cnc(NCCNc3ccc(C#N)cn3)nc2-c2ccc(Cl)cc2Cl)n1 [CHIR, CHIR99021] | 6 µM | 18 µM |  |  | 
2 | C[C@@H](N)[C@H]1CC[C@H](C(=O)Nc2ccncc2)CC1 [Y27632] |  |  | 93% | 9 fold | 162 μm
